Experimental data reported in US12637418B2, “Heterocyclic compounds as antagonist of NMDA” (TAKEDA PHARMACEUTICAL COMPANY LIMITED, priority 2019, dated 2026).

Columns and labels:
[1] = in vivo; cited from earlier work
[2] = target: NMDA receptor composed of four subunits including 2 sets of heterodimers of NR1 and NR2B (human GRIN1 and GRIN2B expressed in HEK293 cell) (Homo sapiens, UniProt Q13224); assay: NR2B Ca^2+ influx assay; assay type: cell-based; settings: 10 μM final compound concentration; 30 μM glutamic acid and 30 μM glycine; HEK293 cells expressing GRIN1 and GRIN2B; Fluo-4 fluorescence; read-out: inhibitory rate (10 μM compound concentration)
Text: To confirm the “antagonistic action on an NMDA receptor containing the NR2B subunit” of the compound of the present invention, human embryonic kidney cell expressing the “NMDA receptor composed of four subunits including 2 sets of heterodimers of NR1 and NR2B”, specifically HEK293 cell expressing human glutamate ionotropic receptor NMDA type subunit 1 (GRIN1) and human glutamate ionotropic receptor NMDA type subunit 2B (GRIN2B), was used and the activation suppressive effect on the receptors was measured.
HEK293 cells that express GRIN1 and GRIN2B were purchased from ChanTest (Human NMDA (NR1/NR2B) Receptor-expressing, stable replicating cell line (HEK293) catalog No. CT6121).
As an index of the NMDA receptor activation, intracellular calcium ion (Ca^2+) influx caused by the binding of glycine and glutamic acid with NR1 and NR2B, respectively, was used.
HEK293 cells that express GRIN1 and GRIN2B were cultured in DMEM/F-12 (COSMO BIO, 10-092-CM) medium added with 10% FBS (fetal bovine serum, AusGene), 100 units/mL penicillin, 100 μg/mL streptomycin, 500 μg/mL neomycin, 100 μg/mL Zeocin (registered trade mark, Invitrogen), 5 μg/mL Blasticidin in a cell culture flask in an incubator (under 37° C., 5% CO2).
The cells were detached from the flask with trypsin the day before the assay, suspended in a seeding medium (DMEM (Invitrogen, 31053) added with 10% FBS, 100 units/mL penicillin, 100 μg/mL streptomycin) at 8×10^5 cells/mL, seeded by 25 μL per well in a 384-well plate (Falcon, 356663) at 20000 cells/well, and cultured overnight in an incubator. On the day of the assay, tetracycline (Wako Pure Chemical Industries, Ltd., 209-16561) was diluted with the seeding medium at 2 μg/mL, added at 25 μL/well to the plate seeded with the cells, and cultured for 2 hr in an incubator. Thereafter, the medium was removed, and the cells were washed with 50 μL/well assay buffer (137 mM NaCl, 4 mM KCl, 1.8 mM CaCl2, 10 mM HEPES (pH 7.2), 10 mM Glucose, 0.1% BSA). Then, a loading buffer (assay buffer added with 2.5 μM Fluo-4AM, 2 mM Amaranth, 1 mM Tartrazine) was added at 25 μL/well, and the cells were incubated in the incubator for 30 min, and at room temperature for 15 min. A solution of the Example compound diluted with the above-mentioned assay buffer at 30 μM (final concentration 10 μM) was added at 25 μL/well, and the cells were left standing for 15 min at room temperature. Using FDSS7000EX/μCELL (Hamamatsu Photonics K.K.), an assay buffer containing 30 μM glutamic acid and 30 μM glycine was added at 25 μL/well, and fluorescence signals with wavelengths of Excitation 480 nm and Emission 540 nm were measured every 3 seconds for 5 min. The inhibitory activity was calculated as a relative activity value (inhibitory rate) that inhibits 100% of the cumulative value of the fluorescence value of a well added with an assay buffer free of glutamic acid, glycine, relative to the cumulative value of the fluorescence value of each well.

[3] = test system: NMDA receptor containing NR2B subunit (NMDA receptor expressed in the hippocampus tissue); assay: In vivo [^3H]MK-801 binding test; parameters: species or system Sprague Dawley rats; settings: [^3H]MK-801 binding inhibitory rate, rat hippocampus, vehicle 100%, MK-801 maleate 0%
Method: In Vivo [^3H]MK-801 Binding Test
To confirm the “functionally antagonistic action in vivo for NMDA receptor containing NR2B subunit” that the compound of the present invention has, a binding test was performed using a tritium-labeled form of MK-801 ((5R,10S)-5-methyl-10,11-dihydro-5H-5,10-epiminodibenzo[a,d][7]annulene) ([^3H]MK-801) which is a compound that binds to the gate of the NMDA receptor.
An Example compound (1 mg/kg/2 mL, 0.5% MC water) or vehicle ([…], 0.5% MC water) was orally administered (p.o.) to Sprague Dawley rats (body weight 180-260 g). After a certain period of time (near the time when the maximum blood concentration was reached), [^3H]MK-801 (20 μCi/kg/mL, Muromachi Kikai Co., Ltd.) was intravenously administered from the tail vein. […] 10 mL of liquid scintillator A (Fujifilm Wako Pure Chemical Corporation) was added, and the residual radioactivity was measured by a liquid scintillation counter (ALOKA LSC-6100). The residual radioactivity of 100 μL of the homogenate before filtration through the glass filter was also measured in the same manner. By calculating [residual radioactivity in filter/residual radioactivity in 100 μL of homogenate], correction by the dose of [^3H]MK-801 was performed, and the value was used as a binding ratio of [^3H]MK-801 in the NMDA receptor expressed in the hippocampus tissue of each individual. […]

[4] = intravenous single administration; cited from earlier work
[5] = in vivo; cited from earlier work; remark: listed apart in the source
[6] = rodents; cited from earlier work
[7] = continuous intravenous administration; cited from earlier work

Sequence of NMDA receptor composed of four subunits including 2 sets of heterodimers of NR1 and NR2B (human GRIN1 and GRIN2B expressed in HEK293 cell) (Q13224 27-1484, other chains not shown): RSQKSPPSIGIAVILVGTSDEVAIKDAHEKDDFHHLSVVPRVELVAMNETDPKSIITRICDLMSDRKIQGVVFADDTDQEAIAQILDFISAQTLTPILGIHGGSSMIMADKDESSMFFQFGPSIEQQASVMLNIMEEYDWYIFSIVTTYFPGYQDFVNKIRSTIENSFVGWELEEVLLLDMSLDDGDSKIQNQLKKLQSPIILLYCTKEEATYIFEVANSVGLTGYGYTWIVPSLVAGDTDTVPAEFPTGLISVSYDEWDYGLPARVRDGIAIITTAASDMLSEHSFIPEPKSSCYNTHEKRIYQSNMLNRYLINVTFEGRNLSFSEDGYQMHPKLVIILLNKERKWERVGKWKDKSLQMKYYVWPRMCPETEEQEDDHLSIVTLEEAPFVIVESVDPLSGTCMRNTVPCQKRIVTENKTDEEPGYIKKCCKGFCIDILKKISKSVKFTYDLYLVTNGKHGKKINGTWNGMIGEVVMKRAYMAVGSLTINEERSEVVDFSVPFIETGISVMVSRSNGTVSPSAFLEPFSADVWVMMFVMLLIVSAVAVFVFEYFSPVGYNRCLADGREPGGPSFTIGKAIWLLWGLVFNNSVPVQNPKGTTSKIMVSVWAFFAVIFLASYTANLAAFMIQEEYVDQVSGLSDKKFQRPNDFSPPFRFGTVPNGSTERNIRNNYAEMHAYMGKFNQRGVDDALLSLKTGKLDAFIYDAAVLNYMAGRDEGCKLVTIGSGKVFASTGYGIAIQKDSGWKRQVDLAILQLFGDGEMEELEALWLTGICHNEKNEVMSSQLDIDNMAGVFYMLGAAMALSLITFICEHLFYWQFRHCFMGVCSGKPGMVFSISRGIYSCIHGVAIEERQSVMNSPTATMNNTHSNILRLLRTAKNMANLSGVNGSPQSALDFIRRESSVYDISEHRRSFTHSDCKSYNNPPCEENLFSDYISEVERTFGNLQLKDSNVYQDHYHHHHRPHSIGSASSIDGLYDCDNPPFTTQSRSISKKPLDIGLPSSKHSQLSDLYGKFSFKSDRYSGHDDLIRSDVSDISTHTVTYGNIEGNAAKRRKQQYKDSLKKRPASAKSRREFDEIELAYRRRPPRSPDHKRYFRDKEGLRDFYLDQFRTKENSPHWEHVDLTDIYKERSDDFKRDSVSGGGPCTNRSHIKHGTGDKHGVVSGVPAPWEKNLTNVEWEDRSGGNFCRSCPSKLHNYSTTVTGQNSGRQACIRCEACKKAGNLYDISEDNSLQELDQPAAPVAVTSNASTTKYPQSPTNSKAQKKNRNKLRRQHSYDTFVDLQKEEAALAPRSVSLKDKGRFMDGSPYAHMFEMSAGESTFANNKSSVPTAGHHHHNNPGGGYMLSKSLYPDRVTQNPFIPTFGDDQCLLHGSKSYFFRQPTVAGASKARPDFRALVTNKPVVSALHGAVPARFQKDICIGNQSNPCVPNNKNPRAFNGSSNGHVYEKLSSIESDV

CC12CC3CC(C)(C1)CC(N)(C3)C2 [memantine]
peripheral symptoms of dementia [1]: partially improves peripheral symptoms of dementia

COc1ncc(C#N)cc1CNC(=O)c1cnc(OC(F)F)c(F)c1 [Example 9, N-[(5-cyano-2-methoxypyridin-3-yl)methyl]-6-(difluoromethoxy)-5-fluoropyridine-3-carboxamide]
inhibition at 10 µM [2]: 94% | inhibitory rate (1 mg/kg, p.o.) [3]: 10%

CNC1(c2ccccc2Cl)CCCCC1=O (stereo not drawn) [ketamine]
depression symptoms accompanying major depression and bipolar disorder [4]: improves depression symptoms accompanying major depression and bipolar disorder rapidly and in a sustained manner

CC(C(O)c1ccc(O)cc1)N1CCC(Cc2ccccc2)CC1 (stereo not drawn) [Ifenprodil]
pain sense threshold [5]: the pain sense threshold increases

COc1ccc(C#N)c(F)c1CNC(=O)c1cnc(OC(F)F)c(F)c1 [Example 17, N-[(3-cyano-2-fluoro-6-methoxyphenyl)methyl]-6-(difluoromethoxy)-5-fluoropyridine-3-carboxamide]
inhibition at 10 µM [2]: 96% | inhibitory rate (1 mg/kg, p.o.) [3]: 17%

C[C@@H]([C@@H](O)c1ccc(O)cc1)N1CCC(O)(c2ccccc2)CC1 [CP-101, 606]
number of occurrence and depth of cortical spreading depression [6]: suppress the number of occurrence and the depth of cortical spreading depression | treatment resistant-depression symptom [7]: significantly improves treatment resistant-depression symptom
